Results published in ChEMBL document CHEMBL1201862, “PubChem BioAssay data set” (2004).
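Step 1: Grow cells in 96-well plates. Step 2: Expose to compound for 48 hours at 5 concentrations. Step 3: Interpolate endpoints linearly; if unreached, use highest concentration. GI50 marks 50% less growth.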 Calls of active or inactive are those of the source. No stated cut-off is given here; in the data, active = GI50 up to about 1.1 µM and inactive = higher.

Key:
Assay in all cases: NCI anticancer screen, dose series, 48 h
786-0 = test system: 786-0
A498 = test system: A498
A549 = test system: A549
ACHN = test system: ACHN
CAKI-1 = test system: CAKI-1
CCRF-CEM = test system: CCRF-CEM
COLO 205 = test system: COLO 205
DLD-1 = test system: DLD-1
DMS-114 = test system: DMS-114
DMS-273 = test system: DMS-273
HCC 2998 = test system: HCC 2998
HCT-116 = test system: HCT-116
HCT-15 = test system: HCT-15
HL-60 = test system: HL-60
HOP-18 = test system: HOP-18
HOP-62 = test system: HOP-62
IGROV-1 = test system: IGROV-1
K562 = test system: K562
KM-20L2 = test system: KM-20L2
KM12 = test system: KM12
LXFL 529 = test system: LXFL 529
M14 = test system: M14
M19-MEL = test system: M19-MEL
MOLT-4 = test system: MOLT-4
Malme-3M = test system: Malme-3M
NCI-H226 = test system: NCI-H226
NCI-H460 = test system: NCI-H460
NCI-H522 = test system: NCI-H522
OVCAR-4 = test system: OVCAR-4
OVCAR-8 = test system: OVCAR-8
RPMI-8226 = test system: RPMI-8226
RXF 393 = test system: RXF 393
SF-268 = test system: SF-268
SF-539 = test system: SF-539
SK-MEL-28 = test system: SK-MEL-28
SK-MEL-2 = test system: SK-MEL-2
SK-MEL-5 = test system: SK-MEL-5
SK-OV-3 = test system: SK-OV-3
SN12C = test system: SN12C
SNB-19 = test system: SNB-19
SNB-75 = test system: SNB-75
SNB-78 = test system: SNB-78
SR = test system: SR
SW-620 = test system: SW-620
TK-10 = test system: TK-10
U-251 = test system: U-251
UACC-257 = test system: UACC-257
UACC-62 = test system: UACC-62
UO-31 = test system: UO-31
EKVX = test system: EKVX
HOP-92 = test system: HOP-92
HT-29 = test system: HT-29
LOX IMVI = test system: LOX IMVI
NCI-H23 = test system: NCI-H23
OVCAR-3 = test system: OVCAR-3
OVCAR-5 = test system: OVCAR-5
SF-295 = test system: SF-295

SMILES: O=C1C2C3CC4C5C3C1C5C1(SCCS1)C42 (configuration not stated)
- GI50 (786-0): > 100 µM (inactive)
- GI50 (A498): > 100 µM (inactive)
- GI50 (A549): > 100 µM (inactive)
- GI50 (ACHN): > 100 µM (inactive)
- GI50 (CAKI-1): > 100 µM (inactive)
- GI50 (CCRF-CEM): > 100 µM (inactive)
- GI50 (COLO 205): > 100 µM (inactive)
- GI50 (DLD-1): > 100 µM (inactive)
- GI50 (DMS-114): > 100 µM (inactive)
- GI50 (DMS-273): > 100 µM (inactive)
- GI50 (HCC 2998): > 100 µM (inactive)
- GI50 (HCT-116): > 100 µM (inactive)
- GI50 (HCT-15): > 100 µM
- GI50 (HL-60): > 100 µM (inactive)
- GI50 (HOP-18): > 100 µM (inactive)
- GI50 (HOP-62): > 100 µM (inactive)
- GI50 (IGROV-1): > 100 µM (inactive)
- GI50 (K562): > 100 µM (inactive)
- GI50 (KM-20L2): > 100 µM (inactive)
- GI50 (KM12): > 100 µM (inactive)
- GI50 (LXFL 529): > 100 µM (inactive)
- GI50 (M14): > 100 µM (inactive)
- GI50 (M19-MEL): > 100 µM (inactive)
- GI50 (MOLT-4): > 100 µM (inactive)
- GI50 (Malme-3M): > 100 µM (inactive)
- GI50 (NCI-H226): > 100 µM (inactive)
- GI50 (NCI-H460): > 100 µM (inactive)
- GI50 (NCI-H522): > 100 µM (inactive)
- GI50 (OVCAR-4): > 100 µM (inactive)
- GI50 (OVCAR-8): > 100 µM (inactive)
- GI50 (RPMI-8226): > 100 µM (inactive)
- GI50 (RXF 393): > 100 µM (inactive)
- GI50 (SF-268): > 100 µM (inactive)
- GI50 (SF-539): > 100 µM (inactive)
- GI50 (SK-MEL-28): > 100 µM (inactive)
- GI50 (SK-MEL-2): > 100 µM (inactive)
- GI50 (SK-MEL-5): > 100 µM (inactive)
- GI50 (SK-OV-3): > 100 µM (inactive)
- GI50 (SN12C): > 100 µM (inactive)
- GI50 (SNB-19): > 100 µM (inactive)
- GI50 (SNB-75): > 100 µM (inactive)
- GI50 (SNB-78): > 100 µM (inactive)
- GI50 (SR): > 100 µM (inactive)
- GI50 (SW-620): > 100 µM (inactive)
- GI50 (TK-10): > 100 µM (inactive)
- GI50 (U-251): > 100 µM (inactive)
- GI50 (UACC-257): > 100 µM (inactive)
- GI50 (UACC-62): > 100 µM (inactive)
- GI50 (UO-31): > 100 µM (inactive)

SMILES: CC(C)CC(NC(=O)c1cccc(O)c1O)C(=O)NCc1cc(CNC(=O)C(CC(C)C)NC(=O)c2cccc(O)c2O)cc(CNC(=O)C(CC(C)C)NC(=O)c2cccc(O)c2O)c1 (configuration not stated)
- GI50 (786-0): 42 µM (inactive)
- GI50 (A498): 24.8 µM (inactive)
- GI50 (A549): 18.6 µM (inactive)
- GI50 (ACHN): 22.2 µM (inactive)
- GI50 (CAKI-1): 46.3 µM (inactive)
- GI50 (CCRF-CEM): 4.91 µM (inactive)
- GI50 (COLO 205): 16.6 µM (inactive)
- GI50 (DLD-1): 20.9 µM (inactive)
- GI50 (DMS-114): 5.13 µM (inactive)
- GI50 (DMS-273): 15.6 µM (inactive)
- GI50 (EKVX): 12.6 µM (inactive)
- GI50 (HCC 2998): 7.8 µM (inactive)
- GI50 (HCT-116): 15.9 µM (inactive)
- GI50 (HCT-15): 23.1 µM
- GI50 (HL-60): 4.34 µM (inactive)
- GI50 (HOP-18): 24 µM (inactive)
- GI50 (HOP-62): 15 µM (inactive)
- GI50 (HOP-92): 14.6 µM (inactive)
- GI50 (HT-29): 13.3 µM (inactive)
- GI50 (IGROV-1): 5.66 µM (inactive)
- GI50 (K562): 18.9 µM (inactive)
- GI50 (KM-20L2): 7.11 µM (inactive)
- GI50 (KM12): 13.8 µM (inactive)
- GI50 (LOX IMVI): 8.63 µM (inactive)
- GI50 (LXFL 529): 2.82 µM (inactive)
- GI50 (MOLT-4): 11.4 µM (inactive)
- GI50 (Malme-3M): 19.6 µM (inactive)
- GI50 (NCI-H226): 14.7 µM (inactive)
- GI50 (NCI-H23): 15.6 µM (inactive)
- GI50 (NCI-H460): 14 µM (inactive)
- GI50 (NCI-H522): 3.92 µM (inactive)
- GI50 (OVCAR-3): 4.33 µM (inactive)
- GI50 (OVCAR-4): 13.9 µM (inactive)
- GI50 (OVCAR-5): 10.8 µM (inactive)
- GI50 (OVCAR-8): 40.6 µM (inactive)
- GI50 (RPMI-8226): 4.14 µM (inactive)
- GI50 (SF-268): 8.13 µM (inactive)
- GI50 (SF-295): 15.5 µM (inactive)
- GI50 (SF-539): 5.47 µM (inactive)
- GI50 (SK-MEL-28): 13.7 µM (inactive)
- GI50 (SK-MEL-2): 7.05 µM (inactive)
- GI50 (SK-MEL-5): 12.8 µM (inactive)
- GI50 (SK-OV-3): 9.44 µM (inactive)
- GI50 (SN12C): 12.8 µM (inactive)
- GI50 (SNB-19): 13.6 µM (inactive)
- GI50 (SNB-75): 20.6 µM (inactive)
- GI50 (SNB-78): 29.1 µM (inactive)
- GI50 (SR): 8.36 µM (inactive)
- GI50 (SW-620): 17.2 µM (inactive)
- GI50 (TK-10): 16.2 µM (inactive)
- GI50 (U-251): 11.1 µM (inactive)
- GI50 (UACC-257): 20.1 µM (inactive)
- GI50 (UACC-62): 4.49 µM (inactive)
- GI50 (UO-31): 12.3 µM (inactive)

SMILES: CCCCc1c2c(nc3c1CC/C(=C\c1ccccc1)C3=O)CCCC2
- GI50 (786-0): 2.33 µM (inactive)
- GI50 (A549): 12.3 µM (inactive)
- GI50 (ACHN): 12.1 µM (inactive)
- GI50 (CCRF-CEM): 3.43 µM (inactive)
- GI50 (COLO 205): 7.48 µM (inactive)
- GI50 (DLD-1): 3.38 µM (inactive)
- GI50 (DMS-114): 7.74 µM (inactive)
- GI50 (DMS-273): 2.59 µM (inactive)
- GI50 (EKVX): 12.2 µM (inactive)
- GI50 (HCC 2998): 3.52 µM (inactive)
- GI50 (HCT-116): 4.9 µM (inactive)
- GI50 (HCT-15): 3.3 µM
- GI50 (HL-60): 2.79 µM (inactive)
- GI50 (HOP-62): 4.62 µM (inactive)
- GI50 (HT-29): 2.22 µM (inactive)
- GI50 (IGROV-1): 4.61 µM (inactive)
- GI50 (K562): 4.07 µM (inactive)
- GI50 (KM-20L2): 3.59 µM (inactive)
- GI50 (KM12): 3.85 µM (inactive)
- GI50 (LOX IMVI): 1.76 µM (inactive)
- GI50 (LXFL 529): 1.74 µM (inactive)
- GI50 (M14): 4.91 µM (inactive)
- GI50 (M19-MEL): 4.72 µM (inactive)
- GI50 (MOLT-4): 3.33 µM (inactive)
- GI50 (Malme-3M): 7.33 µM (inactive)
- GI50 (NCI-H226): > 10 µM (inactive)
- GI50 (NCI-H23): 5.43 µM (inactive)
- GI50 (NCI-H460): 4.89 µM (inactive)
- GI50 (NCI-H522): 2.15 µM (inactive)
- GI50 (OVCAR-3): 3.25 µM (inactive)
- GI50 (OVCAR-8): 1.98 µM (inactive)
- GI50 (RPMI-8226): 2.88 µM (inactive)
- GI50 (RXF 393): 2.6 µM (inactive)
- GI50 (SF-268): 3.49 µM (inactive)
- GI50 (SF-295): 4.47 µM (inactive)
- GI50 (SF-539): 2.29 µM (inactive)
- GI50 (SK-MEL-28): 3.37 µM (inactive)
- GI50 (SK-OV-3): 10.2 µM (inactive)
- GI50 (SN12C): 3.18 µM (inactive)
- GI50 (SNB-19): 3.48 µM (inactive)
- GI50 (SNB-75): 11 µM (inactive)
- GI50 (SNB-78): 2.99 µM (inactive)
- GI50 (SR): 3.54 µM (inactive)
- GI50 (SW-620): 1.99 µM (inactive)
- GI50 (TK-10): 9.33 µM (inactive)
- GI50 (U-251): 3.49 µM (inactive)
- GI50 (UACC-257): 5.78 µM (inactive)
- GI50 (UACC-62): 2.72 µM (inactive)
- GI50 (UO-31): 6.05 µM (inactive)
